Measurements from publication PMC2783503 (Journal of medicinal chemistry, 2009).
Like-named read-outs stand apart in the source and are kept apart here. Non-standard residues stand in square brackets, D forms with d. Residues, ends and D or L forms follow the SMILES beside them. Phe(2,6-Me2,4-CONH2) = Cc1cc(C(N)=O)cc(C)c1C[C@H](N)C(=O)O; Dmt = Cc1cc(O)cc(C)c1C[C@H](N)C(=O)O; Tic = O=C(O)[C@@H]1Cc2ccccc2CN1

How the values were obtained:
δ opioid receptor [1] = biological target: T1, δ opioid receptor (Mus musculus, UniProt P32300); test: MVD
T1 sequence (P32300 whole entry): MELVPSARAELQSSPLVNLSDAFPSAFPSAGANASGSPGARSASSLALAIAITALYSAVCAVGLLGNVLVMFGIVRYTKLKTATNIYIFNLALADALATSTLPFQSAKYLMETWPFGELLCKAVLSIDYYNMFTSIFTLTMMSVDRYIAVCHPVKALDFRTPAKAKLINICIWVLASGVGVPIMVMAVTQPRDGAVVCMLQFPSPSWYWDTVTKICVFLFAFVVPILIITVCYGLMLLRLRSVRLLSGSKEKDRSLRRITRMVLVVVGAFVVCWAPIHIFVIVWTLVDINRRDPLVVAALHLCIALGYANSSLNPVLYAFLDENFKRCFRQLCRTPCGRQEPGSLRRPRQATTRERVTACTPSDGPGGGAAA

μ opioid receptor [2] = test: GPI; set-up: species or system guinea pig
δ opioid receptor [3] = biological target: T1, δ opioid receptor; details: δ antagonist activity; ref Schiller et al.[10]; cited from earlier work
μ opioid receptor [4] = biological target: μ opioid receptor (UniProt P33535); details: read-out: Ki^μ; ref Schiller et al.[10]; cited from earlier work
μ opioid receptor (UniProt P33535), sequence (P33535 whole entry): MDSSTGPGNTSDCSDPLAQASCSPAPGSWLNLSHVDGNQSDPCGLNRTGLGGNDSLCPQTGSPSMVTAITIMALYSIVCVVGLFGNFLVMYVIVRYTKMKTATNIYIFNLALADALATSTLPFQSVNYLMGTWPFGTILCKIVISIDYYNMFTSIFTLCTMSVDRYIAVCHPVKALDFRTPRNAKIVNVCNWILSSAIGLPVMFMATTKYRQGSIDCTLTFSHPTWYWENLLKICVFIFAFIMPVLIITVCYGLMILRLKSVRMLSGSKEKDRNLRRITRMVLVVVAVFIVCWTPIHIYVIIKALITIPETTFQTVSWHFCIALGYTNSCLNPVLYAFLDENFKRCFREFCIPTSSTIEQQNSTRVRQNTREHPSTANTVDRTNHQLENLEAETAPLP

μ opioid receptor [5] = details: result in words; ref Schiller et al.[10]; cited from earlier work
κ opioid receptor = κ opioid receptor (UniProt P41144); details: read-out: Ki^κ; ref Schiller et al.[10]; cited from earlier work
κ opioid receptor, sequence (P41144 whole entry): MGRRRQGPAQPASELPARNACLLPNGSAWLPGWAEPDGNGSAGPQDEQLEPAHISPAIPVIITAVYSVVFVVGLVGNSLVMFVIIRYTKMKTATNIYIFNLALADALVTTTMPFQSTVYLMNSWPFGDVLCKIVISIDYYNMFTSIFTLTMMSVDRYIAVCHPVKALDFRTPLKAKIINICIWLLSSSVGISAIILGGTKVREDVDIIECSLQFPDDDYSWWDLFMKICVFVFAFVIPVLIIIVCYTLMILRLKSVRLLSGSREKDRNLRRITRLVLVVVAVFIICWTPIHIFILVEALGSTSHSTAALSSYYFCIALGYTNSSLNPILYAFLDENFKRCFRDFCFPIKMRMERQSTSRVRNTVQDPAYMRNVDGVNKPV

In the case of `N[C@@H](Cc1ccc(O)cc1)C(=O)N1Cc2ccccc2C[C@H]1C(=O)O` [compound 9, H-Tyr-Tic-OH] (H-Tyr-[Tic]-OH), the Kb (δ opioid receptor [1]) is reported as 263 ± 40 nM and the GPI activity (μ opioid receptor [2]; result in words) is reported as “inactive”.
For `Cc1cc(C(N)=O)cc(C)c1C[C@H](N)C(=O)N1Cc2ccccc2C[C@H]1C(=O)N[C@@H](Cc1ccccc1)C(=O)N[C@@H](Cc1ccccc1)C(=O)O` [compound 12, H-Cdp-Tic-Phe-Phe-OH] (H-[Phe(2,6-Me2,4-CONH2)][Tic]FF-OH), the Kb (δ opioid receptor [1]) was 0.627 ± 0.058 nM and the “GPI Ke^μ” value (μ opioid receptor [2]; μ antagonist activity) was 3.07 ± 0.26 µM.
For H-Y[Tic]FF-OH [compound 8], the “MVD Ke^δ” value (δ opioid receptor [3]) is listed as 4.80 ± 0.20 nM.
In the case of H-[Dmt]-[Tic]-OH [compound 11], the Ki (μ opioid receptor [4]) is given as 1360 ± 160 nM, the GPI activity (μ opioid receptor [5]) is given as “inactive” and the Ki (κ opioid receptor) is given as greater than 1000 nM.
For H-[Dmt][Tic]FF-OH [compound 10], the “MVD Ke^δ” value (δ opioid receptor [3]) is listed as 0.196 ± 0.035 nM.
